Read-outs that look alike come from different tables or passages of the source.
How the values were obtained:
[1] = target: T1, tau protein (4R) (Homo sapiens, UniProt P10636); test: ThT fluorescence of heparin-induced aggregation of purified tau 4R; supported by AFM and Raman; type: biochemical
T1 construct: gene MAPT; fragment 4R (htau244–372), His-tagged

[2] = target: T1, tau protein (4R); test: ThT fluorescence of heparin-induced aggregation of purified tau 4R, single concentration […]; type: biochemical

T1 sequence (P10636 561-689): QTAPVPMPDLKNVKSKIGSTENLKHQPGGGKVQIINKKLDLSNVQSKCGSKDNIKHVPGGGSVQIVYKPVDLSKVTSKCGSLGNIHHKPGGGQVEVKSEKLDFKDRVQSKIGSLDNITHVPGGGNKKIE

inhibition at 50 µM ([2]; read-out: Inhibition (%)) [%]	Compound	further results
–	O=C(/C=C/c1ccc(O)c(O)c1)O[C@H](Cc1ccc(O)c(O)c1)C(=O)O [compound 5, rosmarinic acid]	IC50 [1]: 7.7 µM
–	CC(C)c1cc2c(c(O)c1O)[C@@]1(C(=O)O)CCCC(C)(C)[C@@H]1CC2 [compound 2, carnosic acid]	inhibition at 50 µM [2]: 65%
50	CC(C)c1cc2c(c(O)c1O)[C@@]13CCCC(C)(C)[C@@H]1[C@H](OC3=O)[C@H]2O [compound 3, rosmanol]	–
70	CC(C)c1cc2c(c(O)c1O)[C@@]13CCCC(C)(C)[C@@H]1[C@H](O)[C@@H]2OC3=O [compound 4, epiisorosmanol]	–
68	CC(C)c1cc2c(c(O)c1O)[C@@]13CCCC(C)(C)[C@@H]1C[C@@H]2OC3=O [compound 1, carnosol]	–

— paper PMC6009890, “Rosmarinic acid prevents fibrillization and diminishes vibrational modes associated to β sheet in tau protein linked to Alzheimer’s disease” (Journal of Enzyme Inhibition and Medicinal Chemistry, 2017)
